The structures appear in SMILES notation.

Test [1] has as its system Ehrlich ascites tumour, ELD hyperdiploid (46 chromosomes). In words: Ehrlich ascites tumour test (LD50, ED50, therapeutic index). It counts as in vivo, SPF NMRI mice. Particulars: additional compounds, result in words. The source says: (§1) The high activity against tumours is further illustrated in these experiments by comparisons with known antitumour agents used in the therapy. The therapeutic indexes (T.I.), i.e. the ratios LD50/ED50, are in all comparisons much more favourable with the compounds of the present invention.
(§2) LD50 is the dose that caused a 50 percent lethality of the animals, ED50 is the dose that caused a 50 percent reduction of tumour size.
(§3) The experimental design and the interpretation of the results have been in accordance with the standards set by the CCNSC (Cancer Chemotherapy Reports, January 1959 and December 1962), and by the DR&D (Cancer Chemotherapy Reports, September 1972, Vol. 3, No. 2).
(§4) The way of administration is by the intraperitoneal route (i.p.) in each case.
Ehrlich ascites tumour, ELD hyperdiploid (46 chromosomes)
Experimental animals: SPF NMRI mice.
Tumour implant: 2 × 10^6 tumour cells i.p.
(§5) Therapy: One injection i.p. on the day following implantation.
(§6) Termination: The animals are killed on the 8th day.
(§7) Evaluation: Weights of tumours of test animals compared with those of control animals.

A further test has as its system Hepatoma AH 130. In words: in vivo. On the set-up: species or system SPF Wistar rats. Particulars: additional compounds, result in words.
From the text: as §1, §2, §3, §4
Experimental animals: SPF Wistar rats.
Tumour implant: 5 × 10^6 tumour cells i.p.
as §5, §6, §7

Turning to `CC(C)CCC[C@@H](C)[C@H]1CC[C@H]2[C@@H]3CC=C4C[C@@H](OC(=O)N(C(=O)N(CCCl)N=O)C5CCCCC5)CC[C@]4(C)[C@H]3CC[C@]12C` [cholesterol-3β-/N^2-cyclohexyl-N^4-(2-chloroethyl)-N^4-nitroso allophanate/], the anti-tumor activity entry (in test [1]; in the test on Hepatoma AH 130) was “exhibit anti-tumor activity” in each case. Turning to `C#C[C@]1(OC(=O)N(CCCl)N=O)CC[C@H]2[C@@H]3CCC4=C(CCC(=O)C4)[C@H]3CC[C@@]21C` [norethynodrel-17β-N-(2-chloroethyl)-N-nitroso carbamate], the anti-tumor activity result (in test [1]; with Hepatoma AH 130) was “exhibit anti-tumor activity” throughout. Take `C[C@]12CC[C@@H]3c4ccc(OC(=O)N(CCCl)N=O)cc4CC[C@H]3[C@@H]1CC[C@@H]2OS(=O)(=O)O` [estradiol-3-N-(2-chloroethyl)-N-nitroso carbamate-17β-sodium sulphate]: the anti-tumor activity result (in test [1]; with Hepatoma AH 130) was “exhibit anti-tumor activity” throughout.

Consider `C[C@]12CC[C@@H]3c4ccc(OC(=O)N(CCCl)N=O)cc4CC[C@H]3[C@@H]1C[C@@H](OC(=O)CCC(=O)O)[C@@H]2OC(=O)CCC(=O)O` [estriol-3-N-(2-chloroethyl)-N-nitroso carbamate-16α,17β-bis-hemisuccinate], for which the anti-tumor activity entry (in test [1]; in the test with Hepatoma AH 130) was “exhibit anti-tumor activity” in each case. As for `C[C@]12CC[C@H]3[C@@H](CCC4=CC(=O)CC[C@@H]43)[C@@H]1CC[C@@H]2OC(=O)N(C(=O)N(CCCl)N=O)C1CCCCC1` [19-nortestosterone-17β-/N^2-cyclohexyl-N^4-(2-chloroethyl)-N^4-nitroso allophanate/], the anti-tumor activity result (in test [1]; in the test on Hepatoma AH 130) was “exhibit anti-tumor activity” throughout. Regarding `C[C@]12CC[C@H](OC(=O)N(CCF)N=O)CC1=CC[C@@H]1[C@@H]2CC[C@]2(C)C(=O)CC[C@@H]12` [dehydroepiandrosterone-3β-N-(2-fluoroethyl)-N-nitroso carbamate], the anti-tumor activity entry (in test [1]; in the test on Hepatoma AH 130) was “exhibit anti-tumor activity” in each case. As to `C#C[C@]1(OC(C)=O)CC[C@H]2[C@@H]3CCc4cc(OC(=O)N(CCCl)C(=O)N(CCCl)N=O)ccc4[C@H]3CC[C@@]21C` [17α-ethynylestradiol-17β-acetate-3-/N^2,N^4-bis(2-chloroethyl)-N^4-nitroso allophanate/], the anti-tumor activity result (in test [1]; with Hepatoma AH 130) was “exhibit anti-tumor activity” throughout. As for `CN(C(=O)O[C@H]1CC[C@@]2(C)C(=CC[C@@H]3[C@@H]2CC[C@]2(C)C(=O)CC[C@@H]32)C1)C(=O)N(CCCl)N=O` [dehydroepiandrosterone-3β-/N^2-methyl-N^4-(2-chloroethyl)-N^4-nitroso allophanate/], the anti-tumor activity result (in test [1]; with Hepatoma AH 130) was “exhibit anti-tumor activity” each time. For `C[C@]12CC[C@@H]3c4ccc(OC(=O)N(CCCl)N=O)cc4CC[C@H]3[C@@H]1CC[C@@H]2OP(=O)(O)O` [estradiol-3-N-(2-chloroethyl)-N-nitroso carbamate-17β-dihydrogen phosphate], the anti-tumor activity entry (in test [1]; in the test on Hepatoma AH 130) was “exhibit anti-tumor activity” in each case. In the case of `CCCCN(C(=O)O[C@H]1CC[C@@]2(C)C(=CC[C@@H]3[C@@H]2CC[C@]2(C)C(=O)CC[C@@H]32)C1)C(=O)N(CCCl)N=O` [dehydroepiandrosterone-3β-/N^2-n-butyl-N^4-(2-chloroethyl)-N^4-nitroso allophanate/], the anti-tumor activity result (in test [1]; in the test with Hepatoma AH 130) was “exhibit anti-tumor activity” in each case. `C[C@]12CC[C@@H]3c4ccc(OC(=O)N(CCCl)N=O)cc4CC[C@H]3[C@@H]1CC[C@@H]2OC(=O)N(CCCl)N=O` [estradiol-3,17β-bis/N-(2-chloroethyl)-N-nitroso carbamate/]: the anti-tumor activity result (in test [1]; in the test on Hepatoma AH 130) was “exhibit anti-tumor activity” each time. With `CC(=O)Oc1ccc2c(c1)CC[C@@H]1[C@@H]2CC[C@@]2(C)[C@H]1C[C@@H](OC(=O)N(CCCl)N=O)[C@@H]2OC(=O)N(CCCl)N=O` [estriol-3-acetate-16α,17β-bis-/N-(2-chloroethyl)-N-nitroso carbamate/], the anti-tumor activity entry (in test [1]; in the test on Hepatoma AH 130) was “exhibit anti-tumor activity” in each case. Turning to `CC(=O)O[C@@H]1C[C@H]2[C@@H]3CCc4cc(OC(=O)N(CCCl)N=O)ccc4[C@H]3CC[C@]2(C)[C@H]1OC(C)=O` [estriol-16α,17β-diacetate-3-N-(2-chloroethyl)-N-nitroso carbamate], the anti-tumor activity entry (in test [1]; in the test with Hepatoma AH 130) was “exhibit anti-tumor activity” each time. As to `C[C@]12CC[C@@H]3c4ccc(OC5CCCC5)cc4CC[C@H]3[C@@H]1CC[C@@H]2OC(=O)N(CCCl)N=O` [estradiol-17β-N-(2-chloroethyl)-N-nitroso carbamate-3-cyclopentyl ether], the anti-tumor activity result (in test [1]; in the test with Hepatoma AH 130) was “exhibit anti-tumor activity” in each case. In the case of `C[C@]12CC[C@H]3[C@@H](CCC4=CC(=O)CC[C@@]43C)[C@@H]1CC[C@@H]2OC(=O)N(C(=O)N(CCCl)N=O)C1CCCCC1` [testosterone-17β-/N^2-cyclohexyl-N^4-(2-chloroethyl)-N^4-nitroso allophanate/], the anti-tumor activity result (in test [1]; in the test on Hepatoma AH 130) was “exhibit anti-tumor activity” each time.

`CC(=O)Oc1ccc2c(c1)CC[C@@H]1[C@@H]2CC[C@@]2(C)[C@H]1C[C@@H](OC(C)=O)[C@@H]2OC(=O)N(C(=O)N(CCCl)N=O)C1CCCCC1` [estriol-3,16α-diacetate-17β-/N^2-cyclohexyl-N^4-(2-chloroethyl)-N^4-nitroso allophanate/]: the anti-tumor activity result (in test [1]; in the test with Hepatoma AH 130) was “exhibit anti-tumor activity” in each case. Take `C[C@]12CCC(=O)C=C1CC[C@@H]1[C@@H]2[C@@H](O)C[C@@]2(C)[C@H]1CC[C@]2(O)C(=O)COC(=O)N(CCCl)N=O` [hydrocortisone-21-N-(2-chloroethyl)-N-nitroso carbamate]: the anti-tumor activity entry (in test [1]; in the test with Hepatoma AH 130) was “exhibit anti-tumor activity” each time. For the compound `C#C[C@]1(OC(=O)N(CCCl)N=O)CC[C@H]2[C@@H]3CCc4cc(OC(C)=O)ccc4[C@H]3CC[C@@]21C` [17α-ethynylestradiol-3-acetate-17β-N-(2-chloroethyl)-N-nitroso carbamate], the anti-tumor activity entry (in test [1]; in the test on Hepatoma AH 130) was “exhibit anti-tumor activity” throughout. Take `C[C@]12CC[C@@H](OC(=O)N(CCCl)N=O)C[C@@H]1CC[C@@H]1[C@@H]2CC[C@]2(C)[C@@H](O)CC[C@@H]12` [androstanediol-3α-N-(2-chloroethyl)-N-nitroso carbamate]: the anti-tumor activity result (in test [1]; with Hepatoma AH 130) was “exhibit anti-tumor activity” in each case. As to `C[C@]12CC[C@H](OC(=O)NC(=O)N(CCCl)N=O)CC1=CC[C@@H]1[C@@H]2CC[C@]2(C)C(=O)CC[C@@H]12` [dehydroepiandrosterone-3β-/N^4-(2-chloroethyl)-N^4-nitroso allophanate/], the anti-tumor activity result (in test [1]; in the test on Hepatoma AH 130) was “exhibit anti-tumor activity” each time. For the compound `C[C@]12CC[C@H](OC(=O)N(CCCl)C(=O)N(CCCl)N=O)CC1=CC[C@@H]1[C@@H]2CC[C@]2(C)C(=O)CC[C@@H]12` [dehydroepiandrosterone-3β-/N^2,N^4-bis (2-chloroethyl)-N^4-nitroso allophanate/], the anti-tumor activity entry (in test [1]; in the test on Hepatoma AH 130) was “exhibit anti-tumor activity” each time.

As to `C[C@]12CCC(=O)C=C1CC[C@@H]1[C@@H]2CC[C@@]2(C)[C@H]1CC[C@]2(C)OC(=O)N(CCCl)N=O` [17α-methyltestosterone-17β-N-(2-chloroethyl)-N-nitroso carbamate], in the test with Hepatoma AH 130, the anti-tumor activity result was “exhibit anti-tumor activity”. Still for that read-out and setting: then `CC(=O)O[C@H]1C(=O)C[C@H]2[C@@H]3CCc4cc(OC(=O)N(CCCl)N=O)ccc4[C@H]3CC[C@]12C` [estra-1,3,5(10)-triene-3,17β-diol-16-one,17β-acetate-3-N-(2-chloroethyl)-N-nitroso carbamate], with “exhibit anti-tumor activity”; and `CC(C)CCC[C@@H](C)[C@H]1CC[C@H]2[C@@H]3CC=C4C[C@@H](OC(=O)N(CCCl)C(=O)N(CCCl)N=O)CC[C@]4(C)[C@H]3CC[C@]12C` [cholesterol-3β-/N^2,N^4-bis (2-chloroethyl)-N^4-nitroso allophanate/], with “exhibit anti-tumor activity”; and `COc1ccc2c(c1)CC[C@@H]1[C@@H]2CC[C@]2(C)[C@@H](OC(=O)N(C(=O)N(CCCl)N=O)c3ccccc3)CC[C@@H]12` [estradiol-3-methylether-17β-/N^2-phenyl-N^4-(2-chloroethyl)-N^4-nitroso allophanate/], with “exhibit anti-tumor activity”.

The values above are taken from US3963707A, “Novel N-nitroso compounds, compositions containing such compounds, processes for their preparation and methods of treatment therewith, and novel intermediates” (Aktiebolaget Leo, priority 1973, dated 1976).
